Measurements: patent US10266544B2, “Aryl substituted aminomethyl spectinomycin analogs as antibacterial agents” (ST. JUDE CHILDREN'S RESEARCH HOSPITAL, INC., priority 2013, dated 2019)
Where a name gives a salt, the structure may show the parent alone. Read-outs that look alike come from different tables or passages of the source.

Legend:
Format in all cases: cell-based
[1] = tested on: MRSA, Staphylococcus aureus (NRS70); experiment: MIC determination, microbroth dilution; settings: Staphylococcus aureus (NRS70); read-out: MIC MRSA
[2] = tested on: Neisseria meningitides (ATCC 13077); experiment: Disc diffusion assay; settings: ATCC13077, 4 μg per disc, read-out: Zone of inhibition N.m.
[3] = tested on: gram-positive and gram-negative bacteria
[4] = tested on: Proteus mirabilis (ATCC 25933); experiment: MIC determination, microbroth dilution; settings: ATCC25933
[5] = tested on: Enterococcus faecalis (ATCC 33186); experiment: MIC determination, microbroth dilution; settings: ATCC33186; Enterococcus faecalis (ATCC 33186); read-out: MIC E.f.
[6] = tested on: Klebsiella pneumoniae (ATCC 33495); experiment: MIC determination, microbroth dilution; settings: ATCC33495
Yersinia pestis = experiment: microbe, parasite or virus in culture; settings: read-out: MIC Y.p.
Moraxella catarrhalis = experiment: MIC determination (Table 6)
[7] = tested on: Bacillus anthracis, Sterne 34F2; experiment: microbe, parasite or virus in culture; settings: STERNE34F2, read-out: MIC B.a.
Listeria monocytogenes = experiment: MIC determination (Table 6)
[8] = tested on: Stenotrophomonas maltophilia (ATCC 13637); experiment: MIC determination, microbroth dilution; settings: ATCC13637; Stenotrophomonas maltophilia (ATCC 13637); read-out: MIC S.m.
[9] = tested on: Escherichia coli (ATCC 700926); experiment: MIC determination, microbroth dilution; settings: ATCC700926; Escherichia coli (ATCC 700926); read-out: MIC E.c.
E. coli K12 ΔtolC = experiment: microbe, parasite or virus in culture; settings: Escherichia coli, read-out: MIC E.c. Δtolc
[10] = tested on: acinetobacter baumannii (ATCC 19606); experiment: MIC determination, microbroth dilution; settings: ATCC19606
[11] = tested on: Neisseria gonorrhoeae (ATCC 49226); experiment: Disc diffusion assay; settings: ATCC49226, 4 μg per disc, read-out: Zone of inhibition N.g.
[12] = tested on: Proteus vulgaris (ATCC 33420); experiment: MIC determination, microbroth dilution; settings: ATCC33420
[13] = tested on: Bacillus subtilis (ATCC 23857); experiment: MIC determination, microbroth dilution; settings: ATCC23857; Bacillus subtilis (ATCC 23857); read-out: MIC B.s.
[14] = tested on: Haemophilus influenza (ATCC 49247); experiment: microbe, parasite or virus in culture; settings: ATCC49247; Haemophilus influenza; 4 μg per disc; range of at least two experiments; read-out: Zone of inhibition H.i.
[15] = tested on: Burkholderia cepacia (ATCC 25416); experiment: MIC determination, microbroth dilution; settings: Burkholderia cepacia
[16] = tested on: M. tuberculosis clinical isolates; experiment: microbe, parasite or virus in culture; settings: Mycobacterium tuberculosis, H37RV, read-out: MIC H37Rv
[17] = tested on: Neisseria gonorrhoeae (ATCC 49226); experiment: Agar MIC determination (Alamar Blue); settings: ATCC49226, agar MIC, read-out: MIC N.g.
[18] = tested on: Pseudomonas aeruginosa (PA01); experiment: MIC determination, microbroth dilution
[19] = tested on: Streptococcus pyogenes (ATCC 700294); experiment: MIC determination, microbroth dilution; settings: ATCC700294; Streptococcus pyogenes (ATCC 700294); read-out: MIC S. py.
Bacillus anthracis = experiment: microbe, parasite or virus in culture; settings: read-out: MIC B.a.
[20] = tested on: Streptococcus pneumoniae (R6); experiment: MIC determination, microbroth dilution; settings: Streptococcus pneumoniae (R6); read-out: MIC S. pn.
[21] = tested on: Staphylococcus aureus (ATCC 29213); experiment: MIC determination, microbroth dilution; settings: ATCC29213; Staphylococcus aureus (ATCC 29213); read-out: MIC S.a.

CN[C@@H]1[C@H](O)[C@H](NC)[C@H]2O[C@]3(O)[C@H](O[C@@H]2[C@H]1O)O[C@H](C)C[C@@]3(O)CNCCCc1ccccc1 [compound 13, 3′-(R)-3′-(phenylpropylaminomethyl)dihydrospectinomycin Trihydrochloride]
MIC [1]: 12.5 to 25 µg/mL
zone of inhibition at 4 µg/disc [2]: 21 mm
MIC relative to parent SPC [3]: ~10 % of parent SPC
MIC [4]: > 200 µg/mL
MIC [5]: 6.3 µg/mL
MIC [6]: 50 µg/mL
MIC (Yersinia pestis): 50 µg/mL
MIC (Moraxella catarrhalis): 0.4 µg/mL
MIC [7]: 3.1 to 6.3 µg/mL
MIC (Listeria monocytogenes): 1.6 to 3.1 µg/mL
MIC [8]: 6.3 to 12.5 µg/mL
MIC [9]: 12.5 µg/mL
MIC (E. coli K12 ΔtolC): 6.3 µg/mL
MIC [10]: > 200 µg/mL
zone of inhibition at 4 µg/disc [11]: 15 mm
MIC [12]: ≥ 200 µg/mL
MIC [13]: 6.3 µg/mL
zone of inhibition at 4 µg/disc [14]: 14 mm
MIC ([15]; ATCC25416, read-out: MIC B.c., Burkholderia cepacia (ATCC 25416)): > 200 µg/mL
MIC ([15]; ATCC25416, read-out: MIC B.c., Burkholderia cepacia, Table 6): > 200 µg/mL
MIC [16]: 3.1 µg/mL
MIC [17]: 12.5 to 25 µg/mL
MIC [18]: 200 µg/mL
MIC [19]: 3.1 µg/mL
MIC (Bacillus anthracis): 3.1 to 6.3 µg/mL
MIC [20]: 3.1 µg/mL
MIC [21]: 12.5 µg/mL
